Source: ChEMBL document CHEMBL1201862, “PubChem BioAssay data set” (2004)
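In this assay, cells in 96-well plates receive the compound at five concentrations for 48 hours. Endpoints are linearly interpolated between the surrounding concentrations. GI50 marks 50% less growth.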 Active and inactive are the calls of the source. Cut-off read from the data, not from the text of the source: active = GI50 up to about 1.1 µM and inactive = higher.

Assays:
Assay in all cases: NCI tumour cell line growth inhibition, 48 h
Hs-578T = test system: Hs-578T
DU-145 = test system: DU-145
MDA-MB-231 = test system: MDA-MB-231
COLO 205 = test system: COLO 205
SN12C = test system: SN12C
SNB-19 = test system: SNB-19
SF-539 = test system: SF-539
UO-31 = test system: UO-31
OVCAR-8 = test system: OVCAR-8
SW-620 = test system: SW-620
UACC-62 = test system: UACC-62
TK-10 = test system: TK-10
HOP-62 = test system: HOP-62
MDA-MB-435 = test system: MDA-MB-435
NCI-H522 = test system: NCI-H522
ACHN = test system: ACHN
SK-MEL-2 = test system: SK-MEL-2
CAKI-1 = test system: CAKI-1
SK-OV-3 = test system: SK-OV-3
T47D = test system: T47D
MCF7 = test system: MCF7
M14 = test system: M14
SR = test system: SR
SNB-75 = test system: SNB-75
MOLT-4 = test system: MOLT-4
RXF 393 = test system: RXF 393
RPMI-8226 = test system: RPMI-8226
IGROV-1 = test system: IGROV-1
HOP-92 = test system: HOP-92
NCI/ADR-RES = test system: NCI/ADR-RES
EKVX = test system: EKVX
HCT-116 = test system: HCT-116
786-0 = test system: 786-0
MDA-N = test system: MDA-N
SF-268 = test system: SF-268
KM12 = test system: KM12
HCC 2998 = test system: HCC 2998
BT-549 = test system: BT-549
K562 = test system: K562
U-251 = test system: U-251
OVCAR-3 = test system: OVCAR-3
NCI-H226 = test system: NCI-H226
NCI-H23 = test system: NCI-H23
OVCAR-5 = test system: OVCAR-5
HCT-15 = test system: HCT-15
SK-MEL-5 = test system: SK-MEL-5
PC-3 = test system: PC-3
SK-MEL-28 = test system: SK-MEL-28
A549 = test system: A549
SF-295 = test system: SF-295
CCRF-CEM = test system: CCRF-CEM
OVCAR-4 = test system: OVCAR-4
Malme-3M = test system: Malme-3M
HT-29 = test system: HT-29
LOX IMVI = test system: LOX IMVI
UACC-257 = test system: UACC-257
HL-60 = test system: HL-60
NCI-H460 = test system: NCI-H460
A498 = test system: A498

Measured: GI50

COc1ccc(/N=C2\C(=N/c3ccc(OC)cc3)N(c3ccccc3[N+](=O)[O-])C(=S)N2c2ccc(OC)cc2)cc1
inactive: Hs-578T > 100 µM | DU-145 > 100 µM | MDA-MB-231 7.78 µM | COLO 205 17.1 µM | SN12C > 100 µM | SNB-19 > 100 µM | SF-539 > 100 µM | UO-31 78 µM | OVCAR-8 > 100 µM | SW-620 > 100 µM | UACC-62 78.9 µM | TK-10 > 100 µM | HOP-62 71.3 µM | MDA-MB-435 > 100 µM | NCI-H522 96.4 µM | ACHN > 100 µM | SK-MEL-2 > 100 µM | CAKI-1 81.5 µM | SK-OV-3 > 100 µM | T47D 26 µM | MCF7 > 100 µM | M14 > 100 µM | SR > 100 µM | SNB-75 > 100 µM | MOLT-4 21.8 µM | RXF 393 23.9 µM | RPMI-8226 > 100 µM | IGROV-1 > 100 µM | HOP-92 > 100 µM | NCI/ADR-RES > 100 µM | EKVX 99.3 µM | HCT-116 35.6 µM | 786-0 > 100 µM | MDA-N 49.8 µM | SF-268 > 100 µM | KM12 > 100 µM | HCC 2998 > 100 µM | BT-549 34.4 µM | K562 35.5 µM | U-251 > 100 µM | OVCAR-3 > 100 µM | NCI-H226 61.9 µM | NCI-H23 > 100 µM | OVCAR-5 > 100 µM | SK-MEL-5 35.2 µM | PC-3 91.6 µM | SK-MEL-28 > 100 µM | A549 > 100 µM | SF-295 51.8 µM
> 100 µM: HCT-15

CN1C(=O)c2cccc3cc([N+](=O)[O-])cc(c23)C1=O
> 10 µM: HCT-15
inactive: Hs-578T > 10 µM | DU-145 > 10 µM | MDA-MB-231 > 10 µM | COLO 205 > 10 µM | SN12C > 10 µM | SNB-19 > 10 µM | SF-539 > 10 µM | CCRF-CEM > 10 µM | OVCAR-8 > 10 µM | SW-620 > 10 µM | OVCAR-4 > 10 µM | UACC-62 > 10 µM | TK-10 > 10 µM | HOP-62 > 10 µM | MDA-MB-435 > 10 µM | NCI-H522 5.65 µM | ACHN > 10 µM | Malme-3M > 10 µM | CAKI-1 > 10 µM | SK-OV-3 > 10 µM | T47D > 10 µM | MCF7 4.05 µM | HT-29 > 10 µM | M14 > 10 µM | SR > 10 µM | SNB-75 > 10 µM | MOLT-4 5.04 µM | RPMI-8226 > 10 µM | IGROV-1 > 10 µM | HOP-92 > 10 µM | NCI/ADR-RES > 10 µM | LOX IMVI > 10 µM | HCT-116 8.61 µM | 786-0 > 10 µM | MDA-N > 10 µM | SF-268 9.25 µM | KM12 > 10 µM | HCC 2998 > 10 µM | BT-549 > 10 µM | K562 > 10 µM | UACC-257 > 10 µM | U-251 > 10 µM | OVCAR-3 > 10 µM | HL-60 > 10 µM | NCI-H23 9.08 µM | OVCAR-5 > 10 µM | SK-MEL-5 > 10 µM | PC-3 > 10 µM | SK-MEL-28 > 10 µM | A549 > 10 µM | SF-295 > 10 µM

O=C(NNC(=O)c1ccc(Cl)cc1NC(=O)C12CC3CC(CC(C3)C1)C2)c1ccc(Cl)cc1
inactive: Hs-578T 21.5 µM | DU-145 22.8 µM | MDA-MB-231 22 µM | COLO 205 14.5 µM | SN12C 27.7 µM | SNB-19 19.1 µM | SF-539 23.7 µM | UO-31 17.1 µM | CCRF-CEM 23.4 µM | OVCAR-8 32.7 µM | SW-620 32.1 µM | OVCAR-4 34.8 µM | UACC-62 21.7 µM | TK-10 20.1 µM | HOP-62 19.8 µM | MDA-MB-435 18.6 µM | NCI-H522 14.7 µM | ACHN 23.6 µM | Malme-3M 11.4 µM | CAKI-1 24.4 µM | SK-OV-3 25.3 µM | T47D 27.9 µM | MCF7 27.9 µM | HT-29 28.2 µM | M14 21.2 µM | SR 28.8 µM | MOLT-4 30.1 µM | RXF 393 19.5 µM | RPMI-8226 15.7 µM | IGROV-1 15 µM | HOP-92 17.5 µM | NCI/ADR-RES 24.8 µM | NCI-H460 23.2 µM | LOX IMVI 18.5 µM | EKVX 23.2 µM | HCT-116 20.3 µM | 786-0 22.5 µM | MDA-N 22 µM | SF-268 29.9 µM | KM12 20.3 µM | HCC 2998 17.1 µM | BT-549 41.7 µM | K562 34.9 µM | UACC-257 25.8 µM | U-251 20.2 µM | OVCAR-3 19.5 µM | NCI-H226 22.7 µM | HL-60 25.7 µM | NCI-H23 39.7 µM | OVCAR-5 28.3 µM | SK-MEL-5 18 µM | PC-3 26.8 µM | A549 19.5 µM | SF-295 22.9 µM
17.5 µM: HCT-15

COc1ccc(N2C(=O)C3c4[nH]c5ccccc5c4C4C(C)CCCC4C3C2=O)cc1 (stereo unspecified)
inactive: Hs-578T 19.8 µM | DU-145 > 83 µM | MDA-MB-231 20.4 µM | COLO 205 > 50.7 µM | SN12C 40.9 µM | SNB-19 > 44.6 µM | SF-539 > 43.4 µM | UO-31 > 76.7 µM | CCRF-CEM 5.66 µM | OVCAR-8 34 µM | SW-620 > 53 µM | OVCAR-4 33.7 µM | UACC-62 48.8 µM | TK-10 > 88.3 µM | HOP-62 23.6 µM | MDA-MB-435 3.46 µM | NCI-H522 7.94 µM | ACHN 47.8 µM | Malme-3M 8.69 µM | SK-MEL-2 44.6 µM | CAKI-1 36.1 µM | SK-OV-3 > 81.3 µM | T47D > 78.7 µM | MCF7 37.2 µM | HT-29 29.7 µM | M14 > 41.5 µM | SNB-75 19.7 µM | MOLT-4 7.21 µM | RXF 393 > 26.6 µM | RPMI-8226 12.8 µM | IGROV-1 10 µM | HOP-92 35.1 µM | NCI/ADR-RES 14.9 µM | NCI-H460 > 63.8 µM | LOX IMVI 46.5 µM | EKVX > 39.4 µM | HCT-116 13 µM | 786-0 17.5 µM | MDA-N 3.19 µM | SF-268 41 µM | KM12 13.8 µM | HCC 2998 > 100 µM | BT-549 3.64 µM | K562 9.14 µM | UACC-257 39.3 µM | U-251 > 57.7 µM | OVCAR-3 26.1 µM | NCI-H226 41.3 µM | NCI-H23 54.7 µM | A498 45.5 µM | OVCAR-5 > 63.8 µM | SK-MEL-5 35 µM | PC-3 17.7 µM | SK-MEL-28 > 71.1 µM | A549 > 45.1 µM | SF-295 16.4 µM
> 34 µM: HCT-15

N#CC(Cc1ccccc1Br)N(CCC1=CCCCC1)C(c1ccccc1)c1ccccc1 (stereo unspecified)
50.2 µM: HCT-15
inactive: Hs-578T > 100 µM | DU-145 > 100 µM | MDA-MB-231 > 100 µM | COLO 205 50.8 µM | SNB-19 > 100 µM | UO-31 83.2 µM | OVCAR-8 76 µM | SW-620 73.8 µM | OVCAR-4 94 µM | UACC-62 97.1 µM | TK-10 > 100 µM | HOP-62 > 100 µM | MDA-MB-435 30.4 µM | NCI-H522 25.9 µM | ACHN > 100 µM | Malme-3M > 100 µM | SK-MEL-2 > 100 µM | CAKI-1 > 100 µM | SK-OV-3 > 100 µM | T47D 38.3 µM | MCF7 52.4 µM | HT-29 32.9 µM | M14 37.9 µM | SNB-75 > 100 µM | MOLT-4 72.3 µM | RXF 393 71.6 µM | RPMI-8226 31.7 µM | IGROV-1 52.1 µM | HOP-92 29.7 µM | NCI/ADR-RES > 100 µM | NCI-H460 57.3 µM | EKVX 51.4 µM | HCT-116 32.8 µM | 786-0 > 100 µM | MDA-N 41.4 µM | SF-268 > 100 µM | KM12 64.9 µM | HCC 2998 18.6 µM | BT-549 > 100 µM | K562 44.3 µM | UACC-257 61.8 µM | U-251 83.8 µM | OVCAR-3 75.5 µM | NCI-H23 27.8 µM | A498 > 100 µM | OVCAR-5 > 100 µM | SK-MEL-5 46 µM | PC-3 > 100 µM | SK-MEL-28 > 100 µM | A549 93.3 µM | SF-295 58.7 µM
